Experimental data taken from patent publication US20090233796A1, “HERBICIDAL COMPOSITION” (SYNGENTA CROP PROTECTION, INC., priority 2004, published 2009).

Key:
Assay type in all cases: in vivo
[1] = tested on: ABUTILON THEOPHRASTI; assay: Compound (A) with S-metolachlor, weed plots; settings: 1420 g/ha
Description: […] The compositions were formulated as an emulsifyable concentrate (EC).
(§1) The results in the table under each application are the percentage of the plants that were killed.

[2] = tested on: IPOMOEA SP.; assay: Compound (A) with S-metolachlor, weed plots; settings: 1420 g/ha
Experimental: (§2) In these tests, various weeds were treated with S-metolachlor (SMOC) alone at an application rate equivalent to 1420 g per hectare, Compound (A) alone at rates equivalent to 20 g per hectare and […] and with mixtures of S-metolachlor and the Compound (A) at rates equivalent to the sum of these. The compositions were formulated as an emulsifyable concentrate (EC).
as §1

[3] = tested on: XANTHIUM STRUMARIUM; assay: Compound (A) with S-metolachlor, weed plots; settings: 1420 g/ha
Experimental: as §2, §1

[4] = tested on: E[…]-GALLI; assay: Compound (A) with S-metolachlor, weed plots; settings: 1420 g/ha; 28 DAA; Trial 4.1
Experimental: as §2, §1

[5] = tested on: AMBROSIA TRIFIDA; assay: Compound (A) with S-metolachlor, weed plots; settings: 1420 g/ha
Experimental: as §2, §1

[6] = tested on: C[…]; assay: Compound (A) with S-metolachlor, weed plots; settings: 1420 g/ha
Experimental: as §2, §1

[7] = tested on: POLYGONUM PENSYLVANICUM; assay: Compound (A) with S-metolachlor, weed plots; settings: 1420 g/ha; 56 DAA; Trial 4.14
Experimental: as §2, §1

[8] = tested on: SESBANIA EXALTATA; assay: Compound (A) with S-metolachlor, weed plots; settings: 1420 g/ha; 56 DAA; Trial 4.2
Experimental: as §2, §1

[9] = tested on: AMBROSIA ARTEMISIIFOLIA; assay: Compound (A) with S-metolachlor, weed plots; settings: 1420 g/ha
Experimental: as §2, §1

[10] = tested on: COMMELINA SP.; assay: Compound (A) with nicosulfuron, weed plots; settings: 35 g/ha
Description: In these tests, […] and Compound (A) at rates equivalent to the sum of these. The compositions were formulated as an emulsifyable concentrate (EC).
as §1

[11] = tested on: IPOMOEA SP.; assay: Compound (A) with nicosulfuron, weed plots; settings: 35 g/ha; 5 DAA; No. 3.10
Experimental: (§3) In these tests, various weeds were treated with nicosulfuron alone at a rate equivalent to 35 g per hectare, […] and Compound (A) at rates equivalent to the sum of these. The compositions were formulated as an emulsifyable concentrate (EC).
as §1

[12] = tested on: SETARIA SP.; assay: Compound (A) with nicosulfuron, weed plots; settings: 35 g/ha; 21 DAA; No. 3.4
Experimental: as §3, §1

[13] = tested on: DIGITARIA SANGUINALIS; assay: Compound (A) with nicosulfuron, weed plots; settings: 35 g/ha
Experimental: as §3, §1

[14] = tested on: AMBROSIA TRIFIDA; assay: Compound (A) with nicosulfuron, weed plots; settings: 35 g/ha; 28 DAA; No. 3.15
Experimental: as §3, §1

[15] = tested on: ABUTILON THEOPHRASTI; assay: Compound (A) with nicosulfuron, weed plots; settings: 35 g/ha; 27 DAA; No. 3.13
Experimental: as §3, §1

[16] = tested on: BRACHIARIA PLATYPHYLLA; assay: Compound (A) with nicosulfuron, weed plots; settings: 35 g/ha
Experimental: as §3, §1

[17] = tested on: SETARIA VIRIDIS; assay: Compound (A) with nicosulfuron, weed plots; settings: 35 g/ha; 4 DAA; No. 3.11
Experimental: as §3, §1

[18] = tested on: […]; assay: Compound (A) with nicosulfuron, weed plots; settings: 35 g/ha; 58 DAA; No. 3.12
Experimental: as §3, §1

[19] = tested on: SESBANIA EXALTATA; assay: Compound (A) with nicosulfuron, weed plots; settings: 35 g/ha
Experimental: as §3, §1

[20] = tested on: CYPERUS ESCULENTUS; assay: Compound (A) with nicosulfuron, weed plots; settings: 35 g/ha
Experimental: as §3, §1

[21] = tested on: C[…].; assay: Compound (A) with nicosulfuron, weed plots; settings: 35 g/ha; 5 DAA; No. 3.8
Experimental: as §3, §1

[22] = tested on: Galium; assay: Compound (A) with prosulfuron, weed plots; settings: 13 DAA, No. 3.24
Description: (§4) In these tests, […] and Compound (A) at rates equivalent to the sum of these. The compositions were formulated as an emulsifiable concentrate (EC).
(§5) The results in the tables under each application are the percentage of the plants that were killed.

[23] = tested on: Corn; assay: Compound (A) with prosulfuron, weed plots; settings: 13 DAA, No. 3.26
Description: as §4, §5

[24] = tested on: Euphorbia; assay: Compound (A) with prosulfuron, weed plots; settings: 13 DAA, No. 3.28
Experimental: (§6) In these tests, various weeds were treated with prosulfinuron alone at a rate equivalent to 35 g per hectare, […] and Compound (A) at rates equivalent to the sum of these. The compositions were formulated as an emulsifiable concentrate (EC).
as §5

[25] = tested on: Rice; assay: Compound (A) with prosulfuron, weed plots; settings: 13 DAA, No. 3.29
Experimental: as §6, §5

[26] = tested on: Brachiaria; assay: Compound (A) with prosulfuron, weed plots; settings: 13 DAA, No. 3.27
Experimental: as §6, §5

[27] = tested on: Wheat; assay: Compound (A) with prosulfuron, weed plots; settings: 13 DAA, No. 3.30
Experimental: as §6, §5

[28] = tested on: Veronica; assay: Compound (A) with prosulfuron, weed plots; settings: 13 DAA, No. 3.25
Experimental: as §6, §5

[29] = tested on: Cyperus; assay: Compound (A) with sulcotrione, weed plots; settings: 14 DAA, Trial 5.1
Experimental: In these tests, various weeds were treated with sulcotrione alone at an application rate equivalent to 1420 g per hectare, […] and Compound (A) at rates equivalent to the sum of these. The compositions were formulated as an emulsifyable concentrate (EC).
as §1

[30] = tested on: CYNODON DACTYLON; assay: Compound (A) with glyphosate, weed plots; settings: 840 g/ha; 82 DAA; No. 2.1
Description: (§7) The compositions were formulated as an emulsifyable concentrate (EC).
as §1

[31] = tested on: DIGITARIA SANGUINALIS; assay: Compound (A) with glyphosate, weed plots; settings: 840 g/ha; 52 DAA; No. 2.2
Description: as §7, §1

[32] = tested on: HORDEUM PUSILLUM; assay: Compound (A) with glyphosate, weed plots; settings: 840 g/ha; 13 DAA; No. 2.6
Description: as §7, §1

[33] = tested on: Ipomoea; assay: Compound (A) with primisulfuron, weed plots; settings: 44 DAA, Trial 3.21
Experimental: In these tests, various weeds were treated with primisulfuron alone at a rate equivalent to 35 g per hectare, […] and Compound (A) at rates equivalent to the sum of these. The compositions were formulated as an emulsifiable concentrate (EC).
as §5

[34] = tested on: Euphorbia; assay: Compound (A) with primisulfuron, weed plots; settings: 45 DAA, Trial 3.20
Description: as §4, §5

CCc1cccc(C)c1N(C(=O)CCl)[C@@H](C)COC [SMOC, S-metolachlor, reference compound]
percentage of the plants that were killed ([1]; 15 DAA, Trial 4.12): 65% | percentage of the plants that were killed ([1]; 23 DAA, Trial 4.3): 13% | percentage of the plants that were killed ([1]; 38 DAA, Trial 4.4): 0% | percentage of the plants that were killed ([1]; 56 DAA, Trial 4.13): 0% | percentage of the plants that were killed ([2]; 25 DAA, Trial 4.9): 0% | percentage of the plants that were killed ([2]; 49 DAA, Trial 4.10): 0% | percentage of the plants that were killed ([3]; 26 DAA, Trial 4.17): 38% | percentage of the plants that were killed ([3]; 42 DAA, Trial 4.18): 30% | percentage of the plants that were killed [4]: 75% | percentage of the plants that were killed ([5]; 8 DAA, Trial 4.16): 25% | percentage of the plants that were killed ([5]; 42 DAA, Trial 4.15): 25% | percentage of the plants that were killed ([6]; 26 DAA, Trial 4.5): 0% | percentage of the plants that were killed ([6]; 54 DAA, Trial 4.6): 0% | percentage of the plants that were killed ([6]; 56 DAA, Trial 4.11): 0% | percentage of the plants that were killed [7]: 0% | percentage of the plants that were killed [8]: 20% | percentage of the plants that were killed ([9]; 25 DAA, Trial 4.7): 30% | percentage of the plants that were killed ([9]; 49 DAA, Trial 4.8): 30%

COc1cc(OC)nc(NC(=O)NS(=O)(=O)c2ncccc2C(=O)N(C)C)n1 [Nicosulfuron, nicosulfuron, reference compound]
percentage of the plants that were killed ([10]; 10 DAA, No. 3.18): 0% | percentage of the plants that were killed ([10]; 17 DAA, No. 3.19): 0% | percentage of the plants that were killed [11]: 0% | percentage of the plants that were killed [12]: 70% | percentage of the plants that were killed ([13]; 4 DAA, No. 3.6): 10% | percentage of the plants that were killed ([13]; 5 DAA, No. 3.14): 0% | percentage of the plants that were killed ([13]; 21 DAA, No. 3.5): 70% | percentage of the plants that were killed [14]: 0% | percentage of the plants that were killed [15]: 50% | percentage of the plants that were killed ([16]; 24 DAA, No. 3.16): 35% | percentage of the plants that were killed ([16]; 30 DAA, No. 3.17): 30% | percentage of the plants that were killed [17]: 20% | percentage of the plants that were killed [18]: 0% | percentage of the plants that were killed ([19]; 44 DAA, No. 3.3): 10% | percentage of the plants that were killed ([19]; 45 DAA, No. 3.2): 0% | percentage of the plants that were killed ([20]; 7 DAA, No. 3.7): 0% | percentage of the plants that were killed ([20]; 12 DAA, No. 3.9): 0% | percentage of the plants that were killed [21]: 50%

COc1nc(C)nc(NC(=O)NS(=O)(=O)c2ccccc2CCC(F)(F)F)n1 [Prosulfuron, prosulfuron, reference compound]
percentage of the plants that were killed ([22]; 7.5 g/ha): 30% | percentage of the plants that were killed ([22]; 15 g/ha): 40% | percentage of the plants that were killed ([22]; 30 g/ha): 70% | percentage of the plants that were killed ([23]; 7.5 g/ha): 0% | percentage of the plants that were killed ([23]; 15 g/ha): 0% | percentage of the plants that were killed ([23]; 30 g/ha): 0% | percentage of the plants that were killed ([24]; 7.5 g/ha): 20% | percentage of the plants that were killed ([24]; 15 g/ha): 20% | percentage of the plants that were killed ([24]; 30 g/ha): 30% | percentage of the plants that were killed ([25]; 7.5 g/ha): 0% | percentage of the plants that were killed ([25]; 15 g/ha): 0% | percentage of the plants that were killed ([25]; 30 g/ha): 0% | percentage of the plants that were killed ([26]; 7.5 g/ha): 0% | percentage of the plants that were killed ([26]; 15 g/ha): 0% | percentage of the plants that were killed ([26]; 30 g/ha): 0% | percentage of the plants that were killed ([27]; 7.5 g/ha): 0% | percentage of the plants that were killed ([27]; 15 g/ha): 0% | percentage of the plants that were killed ([27]; 30 g/ha): 0% | percentage of the plants that were killed ([28]; 7.5 g/ha): 0% | percentage of the plants that were killed ([28]; 15 g/ha): 0% | percentage of the plants that were killed ([28]; 30 g/ha): 15%

CS(=O)(=O)c1ccc(C(=O)C2C(=O)CCCC2=O)c(Cl)c1 [Sulcotrione, sulcotrione]
percentage of the plants that were killed ([29]; 50 g/ha): 25% | percentage of the plants that were killed ([29]; 100 g/ha): 30% | percentage of the plants that were killed ([29]; 200 g/ha): 30%

O=C(O)CNCP(=O)(O)O [Glyphosate, glyphosate, reference compound]
percentage of the plants that were killed [30]: 0% | percentage of the plants that were killed [31]: 0% | percentage of the plants that were killed [32]: 30%

O=C(Nc1nc(OC(F)F)cc(OC(F)F)n1)NS(=O)(=O)c1ccccc1C(=O)O [Primisulfuron, primisulfuron, reference compound]
percentage of the plants that were killed ([33]; 7.5 g/ha): 0% | percentage of the plants that were killed ([33]; 15 g/ha): 20% | percentage of the plants that were killed ([33]; 30 g/ha): 25% | percentage of the plants that were killed ([34]; 7.5 g/ha): 10% | percentage of the plants that were killed ([34]; 15 g/ha): 30% | percentage of the plants that were killed ([34]; 30 g/ha): 50%
